Experimental data taken from patent US20250009709A1, “PRENYLATED CHALCONE AND FLAVONOID COMPOSITIONS FOR USE IN TREATING CANCER” (INNOX CORP., priority 2021, published 2025).

System: pCrkl
Assay: pCrkl level in K562-IS cells
Format: cell-based
Settings: 1000 nM imatinib, data not shown
Experimental: The effect of the drug substance on chronic myelogenous leukemic (CML) cells was tested using a K562 cell line model.

`Cc1ccc(NC(=O)c2ccc(CN3CCN(C)CC3)cc2)cc1Nc1nccc(-c2cccnc2)n1` [imatinib] was tested, and the “pCrkl level in comparison with non-treated controls” value was “did not significantly change”.
